Reference: ChEMBL document CHEMBL1201862, “PubChem BioAssay data set” (2004)
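Five compound concentrations were applied to cells in 96-well plates for 48 hours; endpoints were derived by simple linear interpolation of the resulting dose-response curve. Here, GI50 denotes the concentration required for 50% inhibition of growth.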 The source made the active and inactive calls. Cut-off read from the data, not from the text of the source: active = GI50 up to about 1.1 µM and inactive = higher.

Columns and labels:
Experiment in all cases: NCI tumour cell line growth inhibition, 48 h
K562 = tested on: K562
UACC-257 = tested on: UACC-257
OVCAR-3 = tested on: OVCAR-3
SK-MEL-28 = tested on: SK-MEL-28
SNB-75 = tested on: SNB-75
SK-MEL-5 = tested on: SK-MEL-5
NCI/ADR-RES = tested on: NCI/ADR-RES
SK-OV-3 = tested on: SK-OV-3
UO-31 = tested on: UO-31
A498 = tested on: A498
SK-MEL-2 = tested on: SK-MEL-2
NCI-H460 = tested on: NCI-H460
SF-539 = tested on: SF-539
A549 = tested on: A549
LOX IMVI = tested on: LOX IMVI
SR = tested on: SR
HCT-116 = tested on: HCT-116
IGROV-1 = tested on: IGROV-1
RPMI-8226 = tested on: RPMI-8226
MCF7 = tested on: MCF7

Row | SMILES | GI50 (K562) | GI50 (UACC-257) | GI50 (OVCAR-3) | GI50 (SK-MEL-28) | GI50 (SNB-75) | GI50 (SK-MEL-5) | GI50 (NCI/ADR-RES) | GI50 (SK-OV-3) | GI50 (UO-31) | GI50 (A498) | GI50 (SK-MEL-2) | GI50 (NCI-H460) | GI50 (SF-539) | GI50 (A549) | GI50 (LOX IMVI) | GI50 (SR) | GI50 (HCT-116) | GI50 (IGROV-1) | GI50 (RPMI-8226) | GI50 (MCF7)
1 | CC(C)(C)c1cc(C(=O)/C=C/c2cc[nH]n2)cc(C(C)(C)C)c1O | 3.08 µM (inactive) | 3.24 µM (inactive) | 2.75 µM (inactive) | 6.11 µM (inactive) | 4.61 µM (inactive) | 7.52 µM (inactive) | 4.62 µM (inactive) | 15.7 µM (inactive) | 1.76 µM (inactive) | 2.17 µM (inactive) | 1.78 µM (inactive) | 3.72 µM (inactive) | 3.85 µM (inactive) | 3.02 µM (inactive) | 1.85 µM (inactive) | 1.19 µM (inactive) | 2.43 µM (inactive) | 1.93 µM (inactive) | 1.06 µM (active) | 1.36 µM (inactive)
2 | O=c1cc(/N=N/c2ccc(O)cc2)[nH]c(=O)[nH]1 | > 100 µM (inactive) | 73.1 µM (inactive) | 40.7 µM (inactive) | > 100 µM (inactive) | 26.6 µM (inactive) | > 100 µM (inactive) | > 100 µM (inactive) | > 100 µM (inactive) | > 100 µM (inactive) | > 100 µM (inactive) | > 100 µM (inactive) | > 100 µM (inactive) | 53.5 µM (inactive) | > 100 µM (inactive) | 79.6 µM (inactive) | > 100 µM (inactive) | > 100 µM (inactive) | > 100 µM (inactive) | > 100 µM (inactive) | > 100 µM (inactive)
3 | CN1CCN(CCCCN2c3ccccc3Sc3cc(N=[N+]=[N-])ccc32)CC1 | 1.38 µM (inactive) | 1.99 µM (inactive) | 2.55 µM (inactive) | 1.82 µM (inactive) | 3.39 µM (inactive) | 1.57 µM (inactive) | 2.59 µM (inactive) | 8.49 µM (inactive) | 0.586 µM (active) | 9.14 µM (inactive) | 2.09 µM (inactive) | 1.94 µM (inactive) | 3.31 µM (inactive) | 1.94 µM (inactive) | 1.62 µM (inactive) | 5.5 µM (inactive) | 1.62 µM (inactive) | 1.93 µM (inactive) | 2.31 µM (inactive) | 1.99 µM (inactive)
